Reference: US20130029970A1 (priority 2009, published 2013)
Where two headings read alike, the source gives them in different places.

What was measured:
[1] = molecular target: T1, human CB2 receptors (Homo sapiens, UniProt P34972); test: cAMP assay in HEK-293 cells, hCB2 agonist; format: cell-based
T1 construct: (cDNA clone) CNR0200000
Method in brief: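 Stable hCB2 HEK-293 cells in HBSS/10 mM HEPES/0.1% fatty-acid-free BSA incubated 30 min at 37° C with compound; forskolin 90 uM in 3× compound mix.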

[2] = molecular target: T2, human CB2 (hCB2) (Homo sapiens, UniProt P34972); test: 35S GTPγS binding assay, hCB2 agonist; format: biochemical
T2 construct: (cDNA clone) CNR0200000
Method in brief: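 Agonist-stimulated [35S]GTPγS (0.1 nM) binding measured by scintillation proximity after 90 min at room temperature. Reaction buffer: 50 mM HEPES pH 7.4, 100 mM NaCl, 5 mM MgCl2, 0.001% saponin plus 20 uM GDP. Membranes (5 μg) came from transfected cells expressing hCB2 cDNA (pcDNA3.1+ vector).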

[3] = molecular target: T3, recombinant human cannabinoid receptor CB2 (Homo sapiens, UniProt P34972); test: Cannabinoid receptor radioligand binding assay, [3H]-CP 55,940 displacement, hCB2
T3 construct: (cDNA clone) CNR0200000
Method in brief: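 Receptor source: membrane pellet (40,000×g) from transfected cells, stored in HEPES pH 7.4/MgCl2/EDTA/sucrose buffer.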

[4] = inhibition of forskolin-stimulated cAMP, HEK-293 cells, read-out: hCB2 EC50 (cAMP ag)
[5] = GTPγS agonist, HEK-293 membranes, read-out: hCB2 EC50 (GTPyS ag)

T3 sequence (P34972 whole entry): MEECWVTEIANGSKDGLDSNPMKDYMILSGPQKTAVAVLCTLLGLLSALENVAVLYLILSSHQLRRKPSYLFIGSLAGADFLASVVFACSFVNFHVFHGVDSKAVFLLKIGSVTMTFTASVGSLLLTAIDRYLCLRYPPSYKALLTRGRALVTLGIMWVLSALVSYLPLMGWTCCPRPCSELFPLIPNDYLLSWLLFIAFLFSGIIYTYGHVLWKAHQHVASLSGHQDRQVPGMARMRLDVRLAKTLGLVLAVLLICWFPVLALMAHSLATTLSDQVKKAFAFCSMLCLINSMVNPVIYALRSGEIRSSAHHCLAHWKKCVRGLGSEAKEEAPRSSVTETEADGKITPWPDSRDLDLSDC
T2 sequence (P34972 whole entry): as above
T1 sequence (P34972 whole entry): as above

SMILES | EC50 [1] [nM] | EC50 [2] [nM] | IC50 [3] [nM] | EC50 [1, 4] [nM] | EC50 [2, 5] [nM]
COc1ccc(C(=O)c2cc3cc(C)n(CCN4CCCCC4)c3s2)c(O)c1 [Compound 99, (2-Hydroxy-4-methoxyphenyl)(5-methyl-6-(2-(piperidin-1-yl)ethyl)-6H-thieno[2,3-b]pyrrol-2-yl)methanone] | < 100 | < 100 | 100 to 1000 | – | –
COc1ccc(C(O)c2cc3cc(C)n(CCN4CCOCC4)c3s2)cc1 (stereo not drawn) [Compound 100, (4-Methoxyphenyl)(5-methyl-6-(2-morpholinoethyl)-6H-thieno[2,3-b]pyrrol-2-yl)methanol] | – | – | 100 to 1000 | < 100 | < 100
COc1ccc(C(C)(O)c2cc3cc(C)n(CCN4CCOCC4)c3s2)cc1 (stereo not drawn) [Compound 101, 1-(4-methoxyphenyl)-1-(5-methyl-6-(2-morpholinoethyl)-6H-thieno[2,3-b]pyrrol-2-yl)ethanol] | – | – | 100 to 1000 | < 100 | < 100
COc1ccc(C(=O)c2cc3cc(C)n(CCCCNS(C)(=O)=O)c3s2)cc1 [Compound 102, N-(4-(2-(4-Methoxybenzoyl)-5-methyl-6H-thieno[2,3-b]pyrrol-6-yl)butyl)methanesulfonamide] | – | – | < 100 | < 100 | < 100
COc1ccc(Cn2c(C)cc3cc(C(=O)c4ccc(OC)cc4)sc32)cc1 [Compound 103, (6-(4-Methoxybenzyl)-5-methyl-6H-thieno[2,3-b]pyrrol-2-yl)(4-methoxyphenyl)methanone] | 100 to 1000 | 100 to 1000 | 100 to 1000 | – | –
COc1ccc(C(=S)c2cc3cc(C)n(CCN4CCOCC4)c3s2)cc1 [Compound 104, (4-methoxyphenyl)(5-methyl-6-(2-morpholinoethyl)-6H-thieno[2,3-b]pyrrol-2-yl)methanethione] | 100 to 1000 | 100 to 1000 | 1000 to 10000 | – | –
COc1ccc(C(=O)c2cc3cc(C)n(CCCNS(N)(=O)=O)c3s2)cc1 [Compound 105] | 1000 to 10000 | 100 to 1000 | 1000 to 10000 | – | –
Cc1cc2cc(C(=O)c3ccc4c(c3)OCO4)sc2n1CCN1CCOCC1 [Compound 106, Benzo[d][1,3]dioxol-5-yl(5-methyl-6-(2-morpholinoethyl)-6H-thieno[2,3-b]pyrrol-2-yl)methanone] | < 100 | < 100 | 100 to 1000 | – | –
COc1ccc(C(=O)c2cc3cc(C)n(CCCN4CCOCC4)c3s2)cc1 [Compound 107, (4-Methoxyphenyl)(5-methyl-6-(3-morpholinopropyl)-6H-thieno[2,3-b]pyrrol-2-yl)methanone] | – | – | < 100 | < 100 | < 100
COc1ccc(C(=O)c2cc3cc(C)n(CCCNC(C)(C)C)c3s2)cc1 [Compound 108, (6-(3-(tert-Butylamino)propyl)-5-methyl-6H-thieno[2,3-b]pyrrol-2-yl)(4-methoxyphenyl)methanone] | 1000 to 10000 | 100 to 1000 | > 10000 | – | –
COc1ccc(C(=O)c2cc3cc(C)n(CCCNS(C)(=O)=O)c3s2)cn1 [Compound 109, N-(3-(2-(6-Methoxynicotinoyl)-5-methyl-6H-thieno[2,3-b]pyrrol-6-yl)propyl)methanesulfonamide] | – | – | 100 to 1000 | < 100 | < 100
COc1ccc(C(=O)c2cc3cc(C)n(CCN4CCSCC4)c3s2)cc1 [Compound 110, (4-Methoxyphenyl)(5-methyl-6-(2-thiomorpholinoethyl)-6H-thieno[2,3-b]pyrrol-2-yl)methanone] | < 100 | < 100 | < 100 | – | –
Cc1cc2cc(C(=O)c3ccc(OC(C)C)cc3)sc2n1CCN1CCOCC1 [Compound 111, (4-Isopropoxyphenyl)(5-methyl-6-(2-morpholinoethyl)-6H-thieno[2,3-b]pyrrol-2-yl)methanone] | < 100 | 100 to 1000 | 100 to 1000 | – | –
COc1ccc(C(=O)c2cc3cc(C)n(Cc4ccncc4)c3s2)cc1 [Compound 112, (4-Methoxyphenyl)(5-methyl-6-(pyridin-4-ylmethyl)-6H-thieno[2,3-b]pyrrol-2-yl)methanone] | 100 to 1000 | 100 to 1000 | 100 to 1000 | – | –
COc1ccc(C(=O)c2cc3cc(C)n(S(=O)(=O)N(C)C)c3s2)cn1 [Compound 113, 2-(6-Methoxynicotinoyl)-N,N,5-trimethyl-6H-thieno[2,3-b]pyrrole-6-sulfonamide] | < 100 | < 100 | < 100 | – | –
COc1ccc(C(=O)c2cc3cc(C)n(Cc4ccccc4)c3s2)c(Cl)c1 [Compound 114, (6-Benzyl-5-methyl-6H-thieno[2,3-b]pyrrol-2-yl)(2-chloro-4-methoxyphenyl)methanone] | – | – | < 100 | 1000 to 10000 | < 100

SMILES | EC50 [1] [nM] | EC50 [2] [nM] | IC50 [3] [nM] | EC50 [1, 4] [nM] | EC50 [2, 5] [nM]
CSc1ccc(C(=O)c2cc3cc(C)n(CCN4CCOCC4)c3s2)cc1 [Compound 115, (5-Methyl-6-(2-morpholinoethyl)-6H-thieno[2,3-b]pyrrol-2-yl)(4-(methylthio)phenyl)methanone] | 100 to 1000 | 100 to 1000 | 100 to 1000 | – | –
COc1ccc(C(=O)c2cc3cc(C)n(CCN4CCOCC4)c3s2)cc1Cl [Compound 116, (3-Chloro-4-methoxyphenyl)(5-methyl-6-(2-morpholinoethyl)-6H-thieno[2,3-b]pyrrol-2-yl)methanone] | < 100 | < 100 | 100 to 1000 | – | –
COc1ccc(C(=O)c2cc3cc(C)n(CCN4CCCCC4)c3s2)cn1 [Compound 117, (6-Methoxypyridin-3-yl)(5-methyl-6-(2-(piperidin-1-yl)ethyl)-6H-thieno[2,3-b]pyrrol-2-yl)methanone] | < 100 | < 100 | 100 to 1000 | – | –
CCc1ccc(C(=O)c2cc3cc(C)n(CCN4CCOCC4)c3s2)cc1 [Compound 122, (4-Ethylphenyl)(5-methyl-6-(2-morpholinoethyl)-6H-thieno[2,3-b]pyrrol-2-yl)methanone] | < 100 | < 100 | < 100 | – | –
Cc1cc2cc(C(=O)c3cccc(Cl)n3)sc2n1CCN1CCOCC1 [Compound 123, (6-Chloropyridin-2-yl)(5-methyl-6-(2-morpholinoethyl)-6H-thieno[2,3-b]pyrrol-2-yl)methanone] | < 100 | 100 to 1000 | 100 to 1000 | – | –
Cc1ccc(C(=O)c2cc3cc(C)n(CCN4CCOCC4)c3s2)cc1 [Compound 124, (5-Methyl-6-(2-morpholinoethyl)-6H-thieno[2,3-b]pyrrol-2-yl)(p-tolyl)methanone] | < 100 | < 100 | 100 to 1000 | – | –
Cc1ccc(C(O)c2cc3cc(C)n(CCN4CCOCC4)c3s2)cn1 (stereo not drawn) [Compound 125, (5-Methyl-6-(2-morpholinoethyl)-6H-thieno[2,3-b]pyrrol-2-yl)(6-methylpyridin-3-yl)methanol] | 100 to 1000 | 100 to 1000 | > 10000 | – | –
COc1cc(F)c(C(=O)c2cc3cc(C)n(CCN4CCOCC4)c3s2)c(F)c1 [Compound 127, (2,6-difluoro-4-methoxyphenyl)(5-methyl-6-(2-morpholinoethyl)-6H-thieno[2,3-b]pyrrol-2-yl)methanone] | < 100 | < 100 | < 100 | – | –
Cc1ccc(C(=O)c2cc3cc(C)n(CCN4CCOCC4)c3s2)cn1 [Compound 130, (5-methyl-6-(2-morpholinoethyl)-6H-thieno[2,3-b]pyrrol-2-yl)(6-methylpyridin-3-yl)methanone] | 100 to 1000 | 100 to 1000 | 1000 to 10000 | – | –
COc1ccc(C(=O)c2cc3cc(C)n(CCN4CCOCC4)c3s2)nc1 [Compound 131, (5-methoxypyridin-2-yl)(5-methyl-6-(2-morpholinoethyl)-6H-thieno[2,3-b]pyrrol-2-yl)methanone] | < 100 | < 100 | 100 to 1000 | – | –
Cc1cc2cc(C(=O)c3ccc(N(C)C(=O)OC(C)(C)C)cc3)sc2n1CCN1CCOCC1 [Compound 132, tert-butylmethyl(4-(5-methyl-6-(2-morpholinoethyl)-6H-thieno[2,3-b]pyrrole-2-carbonyl)phenyl)carbamate] | 100 to 1000 | 100 to 1000 | 1000 to 10000 | – | –
CNc1ccc(C(=O)c2cc3cc(C)n(CCN4CCOCC4)c3s2)cc1 [Compound 134, (5-methyl-6-(2-morpholinoethyl)-6H-thieno[2,3-b]pyrrol-2-yl)(4-(methylamino)phenyl)methanone] | < 100 | 100 to 1000 | 100 to 1000 | – | –
COc1ccc(C(=O)c2cc3cc(C)n(CCN4CCOCC4)c3s2)c(Cl)n1 [Compound 137, (2-chloro-6-methoxypyridinyl-3-yl)(5-methyl-6-(2-morpholinoethyl)-6H-thieno[2,3-b]pyrrol-2-yl)methanone] | < 100 | < 100 | < 100 | – | –
COc1ccc(C(=O)c2cc3c(Cl)c(C)n(CCN4CCOCC4)c3s2)cc1 [Compound 140, (4-chloro-5-methyl-6-(2-morpholinoethyl)-6H-thieno[2,3-b]pyrrol-2-yl)(4-methoxyphenyl)methanone] | < 100 | < 100 | 100 to 1000 | – | –
CCN(CC)CCn1c(C)cc2cc(C(=O)c3ccc(OC)nc3)sc21 [Compound 142, (6-(2-(diethylamino)ethyl)-5-methyl-6H-thieno[2,3-b]pyrrol-2-yl)(6-methoxypyridin-3-yl)methanone] | 100 to 1000 | 100 to 1000 | 1000 to 10000 | – | –
